According to publication PMC8466754, “Esterase-Sensitive Prodrugs of a Potent Bisubstrate Inhibitor of Nicotinamide N-Methyltransferase (NNMT) Display Cellular Activity” (Biomolecules, 2021):

Key:
[1] = Ester stability assay in buffer (RP-HPLC); type: physicochemical; conditions: for percentage of compound peak area present after 16 h of incubation, PBS: PBS buffer pH 7.4, 16 h; for percentage of compound peak area present after 16 h of incubation, PBS / percentage of compound peak area present after 16 h of incubation, Tris: room temperature, 1 mM compound; for percentage of compound peak area present after 16 h of incubation, Tris: Tris buffer pH 8.4, 16 h; for hydrolytic stability in buffer (in words): PBS pH 7.4 and Tris pH 8.4, over 16 h
Description: The prodrugs were evaluated for their stability in both PBS buffer at pH 7.4 and Tris buffer at pH 8.4. The compounds were dissolved in DMSO at a concentration of 40 mM and diluted with the respective buffer to a final concentration of 1 mM. Compounds were tested directly (t0) and subsequently every 2 h over a time period of 16 h by HPLC. Compounds were eluted from a Dr. Maisch ReproSil-Pur C18 column (4.6 × 250 mm, 10 μm particle size, Dr. Maisch, Ammerbuch-Entringen, Germany) with the following solvent system at a flow rate of 0.5 mL/min: solvent A, 0.1% trifluoroacetic acid in water/acetonitrile (95:5); solvent B, 0.1% trifluoroacetic acid in water/acetonitrile (5:95). Gradient elution was as follows: 100:0 (A/B) to 0:100 (A/B) over 8 min, 0:100 (A/B) for 1 min, then reversion back to 100:0 (A/B) over 1 min, 100:0 (A/B) for 2 min. The formation of the parent compound was evaluated and normalized by measuring the peak area at 214 nm and comparing it to the initial timepoint.
All prodrugs prepared were first tested for their inhibitory activity against NNMT using a biochemical enzymatic activity assay. […] Both these buffers and pHs have been used in the different biochemical and cellular assays described in this report. Compounds were dissolved in DMSO at a concentration of 40 mM and diluted with the respective buffer to a final concentration of 1 mM. Compound stability was then assessed by RP-HPLC directly (t0) and subsequently every 2 h over a time period of 16 h. […] Even for the rather labile methyl ester 12b, the TML group in 14b results in a decrease in hydrolysis of the methyl ester.

[2] = system: HSC-2 human oral cancer cell line; experiment: MTT cell viability assay, HSC-2; type: cell-based
Description: (§1) HSC-2 human oral cancer cell line, T24 human bladder cancer cell line, and A549 human lung cancer line were cultured in DMEM/F12 medium and supplemented with 10% fetal bovine serum and 50 μg/mL gentamicin at 37 °C in a humidified 5% CO2 incubator. For each compound tested, powder was dissolved in DMSO at 100 mM concentration. This stock solution was then diluted in culture medium to final concentration values ranging between 1 µM and 100 µM. For each sample, DMSO was kept constant at 0.1% final concentration. The day before starting treatment, cells were seeded in 96-well plates, at a density of 2000 cells/well. Cells were allowed to attach overnight and then incubated with compounds at different concentrations, or with DMSO only, for 24, 48, and 72 h. All experiments were performed in triplicate.
(§2) Cell proliferation was determined using a colorimetric assay with 3-(4,5-dimethylthiazol-2-yl)-2,5-diphenyl tetrazolium bromide (MTT). The MTT assay measures the conversion of MTT to insoluble formazan by dehydrogenase enzymes of the intact mitochondria of living cells. Cell proliferation was evaluated by measuring the conversion of the tetrazolium salt MTT to formazan crystals upon treatment with compounds or DMSO only for 24, 48, and 72 h. Briefly, cells were incubated for 2 h at 37 °C with 100 µL fresh culture medium containing 5 µL of MTT reagent (5 mg/mL in PBS). The medium was removed and 200 µL isopropanol were added. The amount of formazan crystals formed correlated directly with the number of viable cells. The reaction product was quantified by measuring the absorbance at 540 nm using a plate reader. Experiments were repeated three times. Results were expressed as a percentage of the control (the control equals 100% and corresponds to the absorbance value of each sample at time zero) and presented as mean values ± standard deviation of three independent experiments performed in triplicate.

[3] = system: T24 human bladder cancer cell line; experiment: MTT cell viability assay, T24; type: cell-based
Description: as §1, §2

[4] = system: A549 human lung cancer line; experiment: MTT cell viability assay, A549; type: cell-based
Description: as §1, §2

[5] = biological target: T1, NNMT (Homo sapiens, UniProt P40261); experiment: 1-Methylnicotinamide (MNA) quantification in A549 cells (LC-MS); conditions: A549 lung carcinoma cells; 0.1–100 µM; 24-h treatment (Figure 4)
T1 sequence (P40261 1-264): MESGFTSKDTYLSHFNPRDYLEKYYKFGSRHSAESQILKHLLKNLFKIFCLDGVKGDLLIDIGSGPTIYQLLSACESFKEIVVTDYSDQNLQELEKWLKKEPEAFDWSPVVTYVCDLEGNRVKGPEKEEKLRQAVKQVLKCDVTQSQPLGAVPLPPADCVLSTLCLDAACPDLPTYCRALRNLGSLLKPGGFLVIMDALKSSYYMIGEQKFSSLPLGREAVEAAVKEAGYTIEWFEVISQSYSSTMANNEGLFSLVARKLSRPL
Description: Human lung adenocarcinoma line (A549, ATCC, Manassas, VA, USA) was cultured according to the provider’s indications and seeded in 6-well format. […] After incubation, effluent samples were taken and frozen (−80 °C) for further MNA measurement. Cells also were collected, centrifuged (2 × 500 G/5 min.), and frozen both for the measurement of intracellular MNA and for BCA protein assay.
The quantification of 1-methylnicotinamide (MNA), nicotinamide (NA), nicotinic acid (NicA), 1-methyl-2-pyridone-5-carboxamide (Met-2Pyr), and 1-methyl-4-pyridone-5-carboxamide (Met-4Pyr) was performed by applying ultra-high pressure liquid chromatography coupled to tandem mass spectrometry (UPLC-MS) according to the methodology previously described with minor modifications [35]. A UPLC-MS system comprised of a UPLC Ultimate 3000 (Dionex, Thermo Scientific, Waltham, MA, USA) connected to a TSQ Quantum Ultra mass spectrometer (Thermo Scientific, Waltham, MA, USA) equipped with a heated electrospray ionization interface (HESI-II Probe, Waltham, MA, USA) was used. Chromatographic separation of analytes was carried out on an Aquasil C18 analytical column (4.6 mm × 150 mm, 5 mm; Thermo Scientific, Waltham, MA, USA) under isocratic elution using acetonitrile with 0.1% of formic acid (A) and 5 mM ammonium formate in water (B) as mobile phases delivered at the flow rate of 0.8 mL/min (A:B, 80:20, v/v). The cell pellet was resuspended in 60 µL of deionized water and 50 µL of suspension was transferred to a fresh test tube. An amount of 50 µL of effluent sample was used for the measurement of extracellular MNA. The internal standard (IS) containing MNA-d3 was added to each sample (5 µL) obtaining the final concentration of 500 ng/mL. After the sample mixing, the proteins were precipitated using 100 μL of acidified acetonitrile (0.1% of formic acid), and samples were mixed (10 min), cooled at 4 °C (15 min), and finally centrifuged (15,000× g, 15 min, 4 °C). A clear supernatant was transferred to a chromatographic vial and directly injected (5 µL) into UPLC-MS system. […] The concentration of MNA was calculated based on the calibration curve plotted for the analyte as the relationship between the peak area ratios of analyte/IS to the nominal concentration of the analyte. The concentration of analytes was normalized to milligram of proteins, which was assessed using a Pierce^TM BCA Protein Assay Kit (Thermo Fisher, Waltham, MA, USA) and a Synergy4 multiplate reader (BioTek, Winooski, VT, USA). […]
Using this assay, the levels of MNA produced by NNMT in an A549 lung carcinoma cell line can be quantified by means of a sensitive LC-MS method.

[6] = system: pig liver esterase (PLE); experiment: Esterase-mediated hydrolysis to the parent compound (RP-HPLC); type: in vitro ADME
Description: The conversion of the prodrugs to the parent compound by esterases was evaluated using pig liver esterase (PLE, 18 U/mg, Sigma-Aldrich, St. Louis, MO, USA) in PBS at pH 7.4. Compounds were dissolved in DMSO at 40 mM, diluted to a final concentration of 2 mM with PBS, and added to an equal volume of a 10 mg/mL solution of PLE in PBS (pH 7.4), resulting in final concentrations of 2.5% DMSO, 1 mM compound, and 5 mg/mL PLE. At different time-points 50 µL aliquots were taken, added to 100 µL acetonitrile to precipitate the proteins, and centrifuged for 5 min at 10,000 rpm. The supernatant was subsequently analyzed by HPLC as described in Section 2.2 above.
The next step was to establish whether compounds 12e and 14e are converted to the parent compound in the presence of an esterase.

## CCCOC(=O)[C@H](CCN(C/C=C/c1ccc(C#N)cc1)C[C@H]1O[C@@H](n2cnc3c(N)ncnc32)[C@H](O)[C@@H]1O)NC(=O)CC(C)(C)c1c(C)cc(C)cc1OC(C)=O [Compound 14d, Propyl-(S)-2-(3-(2-acetoxy-4,6-dimethylphenyl)-3-methylbutanamido)-4-((((2R,3S,4R,5R)-5-(6-amino-9H-purin-9-yl)-3,4-dihydroxytetrahydrofuran-2-yl)methyl)((E)-3-(4-cyanophenyl)allyl)amino)butanoate]
[1]
  percentage of compound peak area present after 16 h of incubation, PBS: 90.30%
  percentage of compound peak area present after 16 h of incubation, Tris: 87.52%

## CNc1ccc(C(N)=O)cn1 [Compound 6-MANA, 6-methylamino-nicotinamide, reference compound]
[2]; 100 µM, 24, 48 and 72 h
  effect on cell viability (MTT): no effect
[2]; 1 and 10 µM, 24, 48 and 72 h
  effect on cell viability (MTT): no effects
[3]; 100 µM, 24, 48 and 72 h
  effect on cell viability (MTT): no effect
[3]; 1 and 10 µM, 24, 48 and 72 h
  effect on cell viability (MTT): no effects
[4]; 100 µM, 24, 48 and 72 h
  effect on cell viability (MTT): no effect
[4]; 1 and 10 µM, 24, 48 and 72 h
  effect on cell viability (MTT): no effects
[5]
  effect on cellular MNA levels: high concentrations of both 6-MANA and GYZ-319 are required to substantially decrease the levels of MNA

## CCCOC(=O)[C@@H](N)CCN(C/C=C/c1ccc(C#N)cc1)C[C@H]1O[C@@H](n2cnc3c(N)ncnc32)[C@H](O)[C@@H]1O [Compound 12d, Propyl-(S)-2-amino-4-((((2R,3S,4R,5R)-5-(6-amino-9H-purin-9-yl)-3,4-dihydroxy-tetrahydrofuran-2-yl)methyl)((E)-3-(4-cyanophenyl)allyl)amino)butanoate]
[1]
  percentage of compound peak area present after 16 h of incubation, PBS: 71.96%
  percentage of compound peak area present after 16 h of incubation, Tris: 61.32%

## CC(=O)Oc1cc(C)cc(C)c1C(C)(C)CC(=O)N[C@@H](CCN(C/C=C/c1ccc(C#N)cc1)C[C@H]1O[C@@H](n2cnc3c(N)ncnc32)[C@H](O)[C@@H]1O)C(=O)OC(C)C [Compound 14e, Isopropyl-(S)-2-(3-(2-acetoxy-4,6-dimethylphenyl)-3-methylbutanamido)-4-((((2R,3S,4R,5R)-5-(6-amino-9H-purin-9-yl)-3,4-dihydroxytetrahydrofuran-2-yl)methyl)((E)-3-(4-cyanophenyl)allyl)amino)butanoate]
[2]; 100 µM, 24, 48 and 72 h
  effect on cell viability (MTT): time dependent reduction in cell viability
[2]; 1 and 10 µM, 24, 48 and 72 h
  effect on cell viability (MTT): no effects
[1]
  percentage of compound peak area present after 16 h of incubation, PBS: 91.13%
  hydrolytic stability in buffer (in words): most stable
  percentage of compound peak area present after 16 h of incubation, Tris: 87.69%
[3]; 100 µM, 24, 48 and 72 h
  effect on cell viability (MTT): time dependent reduction in cell viability
[3]; 1 and 10 µM, 24, 48 and 72 h
  effect on cell viability (MTT): no effects
[4]; 100 µM, 24, 48 and 72 h
  effect on cell viability (MTT): time dependent reduction in cell viability
[4]; 1 and 10 µM, 24, 48 and 72 h
  effect on cell viability (MTT): no effects
[5]
  effect on cellular MNA levels: even further enhanced
[6]; 5 mg/mL PLE, PBS pH 7.4, 1 mM compound
  time to full conversion to the parent compound: ≤ 4 h
[6]; PBS pH 7.4, without PLE
  hydrolysis in the absence of PLE: no hydrolysis was observed

## COC(=O)[C@H](CCN(C/C=C/c1ccc(C#N)cc1)C[C@H]1O[C@@H](n2cnc3c(N)ncnc32)[C@H](O)[C@@H]1O)NC(=O)CC(C)(C)c1c(C)cc(C)cc1OC(C)=O [Compound 14b, Methyl-(S)-2-(3-(2-acetoxy-4,6-dimethylphenyl)-3-methylbutanamido)-4-((((2R,3S,4R,5R)-5-(6-amino-9H-purin-9-yl)-3,4-dihydroxytetrahydrofuran-2-yl)methyl)((E)-3-(4-cyanophenyl)allyl)amino)butanoate]
[1]
  percentage of compound peak area present after 16 h of incubation, PBS: 88.08%
  percentage of compound peak area present after 16 h of incubation, Tris: 73.88%

## CCOC(=O)[C@@H](N)CCN(C/C=C/c1ccc(C#N)cc1)C[C@H]1O[C@@H](n2cnc3c(N)ncnc32)[C@H](O)[C@@H]1O [Compound 12c, Ethyl-(S)-2-amino-4-((((2R,3S,4R,5R)-5-(6-amino-9H-purin-9-yl)-3,4-dihydroxytetrahydrofuran-2-yl)methyl)((E)-3-(4-cyanophenyl)allyl)amino)butanoate]
[1]
  percentage of compound peak area present after 16 h of incubation, PBS: 68.36%
  percentage of compound peak area present after 16 h of incubation, Tris: 54.84%

## CCOC(=O)[C@H](CCN(C/C=C/c1ccc(C#N)cc1)C[C@H]1O[C@@H](n2cnc3c(N)ncnc32)[C@H](O)[C@@H]1O)NC(=O)CC(C)(C)c1c(C)cc(C)cc1OC(C)=O [Compound 14c, Ethyl-(S)-2-(3-(2-acetoxy-4,6-dimethylphenyl)-3-methylbutanamido)-4-((((2R,3S,4R,5R)-5-(6-amino-9H-purin-9-yl)-3,4-dihydroxytetrahydrofuran-2-yl)methyl)((E)-3-(4-cyanophenyl)allyl)amino)butanoate]
[1]
  percentage of compound peak area present after 16 h of incubation, PBS: 90.44%
  percentage of compound peak area present after 16 h of incubation, Tris: 87.00%

## N#Cc1ccc(/C=C/CN(CC[C@H](N)C(=O)OCc2ccccc2)C[C@H]2O[C@@H](n3cnc4c(N)ncnc43)[C@H](O)[C@@H]2O)cc1 [Compound 12f, Benzyl-(S)-2-amino-4-((((2R,3S,4R,5R)-5-(6-amino-9H-purin-9-yl)-3,4-dihydroxy-tetrahydrofuran-2-yl)methyl)((E)-3-(4-cyanophenyl)allyl)amino)butanoate]
[1]
  percentage of compound peak area present after 16 h of incubation, PBS: 33.43%
  hydrolytic stability in buffer (in words): least stable
  percentage of compound peak area present after 16 h of incubation, Tris: 21.60%

## COC(=O)[C@@H](N)CCN(C/C=C/c1ccc(C#N)cc1)C[C@H]1O[C@@H](n2cnc3c(N)ncnc32)[C@H](O)[C@@H]1O [Compound 12b, Methyl-(S)-2-amino-4-((((2R,3S,4R,5R)-5-(6-amino-9H-purin-9-yl)-3,4-dihydroxy-tetrahydrofuran-2-yl)methyl)((E)-3-(4-cyanophenyl)allyl)amino)butanoate]
[1]
  percentage of compound peak area present after 16 h of incubation, PBS: 36.97%
  percentage of compound peak area present after 16 h of incubation, Tris: 22.59%
